The values below are quoted from earlier work in US11980624B2, “Methods for administering compositions comprising hydroxytyrosol and boswellic acid” (Nutramax Laboratories, Inc., priority 2016, dated 2024).

The conditions of the data set: single oral 2.5 mg/kg dose, human subjects.

On to `OCCc1ccc(O)c(O)c1` [hydroxytyrosol, 4-(2-Hydroxyethyl)-1,2-benzenediol], for which the peak plasma concentration is 1.11 ± 0.20 µmol/L.
